The structures appear in SMILES notation. Activity calls are given as the source filed them. Rule as the data show it, for most assays here: actives have a measured Kd and inactives only a lower limit.

The target in assay [1] is Epithelial discoidin domain-containing receptor 1 (Homo sapiens, UniProt Q08345).
Assay [2] deals with Cyclin-dependent kinase 12 (Homo sapiens, UniProt Q9NYV4).
Another assay has as its target T1, Ephrin type-B receptor 3 (Homo sapiens, UniProt P54753).
T1 sequence (P54753 whole entry): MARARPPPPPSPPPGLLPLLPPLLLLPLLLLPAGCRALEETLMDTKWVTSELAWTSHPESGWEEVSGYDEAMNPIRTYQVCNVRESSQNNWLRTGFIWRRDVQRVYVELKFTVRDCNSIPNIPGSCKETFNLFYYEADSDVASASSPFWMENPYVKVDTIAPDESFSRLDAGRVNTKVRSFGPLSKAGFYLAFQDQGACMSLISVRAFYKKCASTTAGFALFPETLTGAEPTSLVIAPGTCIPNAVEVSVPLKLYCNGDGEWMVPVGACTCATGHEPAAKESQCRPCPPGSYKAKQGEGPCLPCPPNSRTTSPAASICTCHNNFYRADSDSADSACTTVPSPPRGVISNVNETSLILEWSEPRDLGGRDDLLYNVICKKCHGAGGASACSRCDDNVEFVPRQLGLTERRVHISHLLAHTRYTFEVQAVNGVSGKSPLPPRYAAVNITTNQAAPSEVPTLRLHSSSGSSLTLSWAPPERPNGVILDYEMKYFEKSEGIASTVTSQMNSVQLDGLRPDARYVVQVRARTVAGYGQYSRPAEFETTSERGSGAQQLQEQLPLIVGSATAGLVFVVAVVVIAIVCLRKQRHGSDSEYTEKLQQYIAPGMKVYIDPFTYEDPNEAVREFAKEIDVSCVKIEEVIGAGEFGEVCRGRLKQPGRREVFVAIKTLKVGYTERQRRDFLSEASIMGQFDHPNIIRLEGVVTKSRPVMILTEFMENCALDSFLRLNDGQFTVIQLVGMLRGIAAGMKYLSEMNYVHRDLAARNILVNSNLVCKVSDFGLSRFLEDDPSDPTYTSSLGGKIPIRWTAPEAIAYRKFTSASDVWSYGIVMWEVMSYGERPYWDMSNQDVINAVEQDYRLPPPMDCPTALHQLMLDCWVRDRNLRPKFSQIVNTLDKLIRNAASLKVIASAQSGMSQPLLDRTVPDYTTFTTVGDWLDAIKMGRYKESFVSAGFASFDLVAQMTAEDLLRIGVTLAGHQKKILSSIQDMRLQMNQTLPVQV

Assay [3] addresses T2, Mitogen-activated protein kinase 15 (Homo sapiens, UniProt Q8TD08).
T2 sequence (Q8TD08 whole entry): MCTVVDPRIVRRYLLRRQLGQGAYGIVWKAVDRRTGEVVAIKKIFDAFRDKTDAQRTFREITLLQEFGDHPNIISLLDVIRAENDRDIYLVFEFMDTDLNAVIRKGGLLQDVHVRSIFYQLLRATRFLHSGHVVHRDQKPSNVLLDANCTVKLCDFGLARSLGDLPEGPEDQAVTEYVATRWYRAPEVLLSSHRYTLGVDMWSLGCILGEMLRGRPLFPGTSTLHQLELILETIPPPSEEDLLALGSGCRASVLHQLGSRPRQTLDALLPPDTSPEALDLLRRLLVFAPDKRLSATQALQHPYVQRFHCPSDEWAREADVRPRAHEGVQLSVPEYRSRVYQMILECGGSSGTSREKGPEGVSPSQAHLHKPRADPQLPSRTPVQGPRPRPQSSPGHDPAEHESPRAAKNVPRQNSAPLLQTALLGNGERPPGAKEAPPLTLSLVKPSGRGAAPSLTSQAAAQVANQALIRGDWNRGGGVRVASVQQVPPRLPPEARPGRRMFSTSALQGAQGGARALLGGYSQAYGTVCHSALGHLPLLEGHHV

Assay [4] deals with T3, Serine/threonine-protein kinase 4 (Homo sapiens, UniProt Q13043).
T3 sequence (Q13043 whole entry): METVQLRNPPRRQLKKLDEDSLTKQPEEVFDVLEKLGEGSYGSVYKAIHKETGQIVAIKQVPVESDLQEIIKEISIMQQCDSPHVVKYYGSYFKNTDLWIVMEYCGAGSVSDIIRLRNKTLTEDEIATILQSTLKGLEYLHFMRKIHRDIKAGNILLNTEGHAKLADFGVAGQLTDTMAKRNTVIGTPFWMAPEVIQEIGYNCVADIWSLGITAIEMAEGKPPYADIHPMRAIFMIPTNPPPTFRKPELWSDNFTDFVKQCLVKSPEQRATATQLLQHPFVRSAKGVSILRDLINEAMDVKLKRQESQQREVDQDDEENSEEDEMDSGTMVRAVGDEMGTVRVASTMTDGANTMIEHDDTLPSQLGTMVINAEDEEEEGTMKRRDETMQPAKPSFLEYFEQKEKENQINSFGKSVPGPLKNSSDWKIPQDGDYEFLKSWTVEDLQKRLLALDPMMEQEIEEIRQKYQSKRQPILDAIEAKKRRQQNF

Assay [5] deals with T4, Cytochrome c1, heme protein, mitochondrial (Homo sapiens, UniProt P08574).
T4 sequence (P08574 whole entry): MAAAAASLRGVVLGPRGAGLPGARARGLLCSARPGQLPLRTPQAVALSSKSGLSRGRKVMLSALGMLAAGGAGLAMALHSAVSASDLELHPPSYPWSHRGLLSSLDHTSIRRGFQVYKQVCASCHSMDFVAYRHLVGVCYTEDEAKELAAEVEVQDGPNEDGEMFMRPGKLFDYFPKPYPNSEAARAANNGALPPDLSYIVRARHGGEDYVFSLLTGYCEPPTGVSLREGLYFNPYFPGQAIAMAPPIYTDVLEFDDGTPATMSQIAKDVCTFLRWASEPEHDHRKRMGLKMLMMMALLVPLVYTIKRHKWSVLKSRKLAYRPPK
Also: in the data inactive means no Kd found up to 30 µM.

Chain of Cyclin-dependent kinase 12 (Q9NYV4 whole entry): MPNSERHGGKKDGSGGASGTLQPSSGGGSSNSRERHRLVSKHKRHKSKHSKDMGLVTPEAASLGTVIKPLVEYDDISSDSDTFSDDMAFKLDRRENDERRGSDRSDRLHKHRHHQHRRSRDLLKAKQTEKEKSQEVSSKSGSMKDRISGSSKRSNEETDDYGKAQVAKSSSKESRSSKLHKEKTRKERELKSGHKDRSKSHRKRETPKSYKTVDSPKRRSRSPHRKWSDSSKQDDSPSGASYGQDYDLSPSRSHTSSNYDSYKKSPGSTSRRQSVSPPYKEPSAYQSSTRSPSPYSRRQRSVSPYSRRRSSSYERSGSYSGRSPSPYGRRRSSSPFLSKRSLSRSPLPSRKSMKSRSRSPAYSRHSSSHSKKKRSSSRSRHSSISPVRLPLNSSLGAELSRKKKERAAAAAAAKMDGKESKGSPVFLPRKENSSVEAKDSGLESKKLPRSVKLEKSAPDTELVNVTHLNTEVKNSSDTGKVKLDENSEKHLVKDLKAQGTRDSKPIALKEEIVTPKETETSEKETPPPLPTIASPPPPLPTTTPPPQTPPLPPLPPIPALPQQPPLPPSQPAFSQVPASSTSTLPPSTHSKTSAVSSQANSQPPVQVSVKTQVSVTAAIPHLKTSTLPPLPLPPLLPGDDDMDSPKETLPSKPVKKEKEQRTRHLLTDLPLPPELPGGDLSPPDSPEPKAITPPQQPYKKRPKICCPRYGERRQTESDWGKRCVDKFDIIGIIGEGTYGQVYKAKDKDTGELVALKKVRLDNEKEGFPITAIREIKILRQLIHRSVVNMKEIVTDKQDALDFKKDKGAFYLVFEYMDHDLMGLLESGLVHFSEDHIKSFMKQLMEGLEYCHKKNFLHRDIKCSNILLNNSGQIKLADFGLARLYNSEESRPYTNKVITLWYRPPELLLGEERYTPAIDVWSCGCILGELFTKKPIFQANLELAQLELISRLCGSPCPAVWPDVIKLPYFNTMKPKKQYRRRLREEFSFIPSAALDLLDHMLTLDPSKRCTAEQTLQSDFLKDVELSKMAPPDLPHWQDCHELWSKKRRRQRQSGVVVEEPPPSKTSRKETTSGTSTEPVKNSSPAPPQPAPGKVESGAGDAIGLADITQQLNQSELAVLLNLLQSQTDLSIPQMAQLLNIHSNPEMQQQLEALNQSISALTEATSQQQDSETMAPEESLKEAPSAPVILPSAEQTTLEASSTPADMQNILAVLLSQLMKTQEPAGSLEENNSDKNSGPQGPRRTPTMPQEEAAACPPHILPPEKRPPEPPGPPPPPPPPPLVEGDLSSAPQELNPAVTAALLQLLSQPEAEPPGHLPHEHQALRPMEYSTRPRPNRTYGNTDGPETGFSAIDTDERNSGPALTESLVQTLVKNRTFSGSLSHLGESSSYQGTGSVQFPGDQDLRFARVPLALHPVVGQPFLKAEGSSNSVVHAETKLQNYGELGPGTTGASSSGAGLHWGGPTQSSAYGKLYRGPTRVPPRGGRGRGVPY
Chain of Epithelial discoidin domain-containing receptor 1 (Q08345 whole entry, the tested form may be a part): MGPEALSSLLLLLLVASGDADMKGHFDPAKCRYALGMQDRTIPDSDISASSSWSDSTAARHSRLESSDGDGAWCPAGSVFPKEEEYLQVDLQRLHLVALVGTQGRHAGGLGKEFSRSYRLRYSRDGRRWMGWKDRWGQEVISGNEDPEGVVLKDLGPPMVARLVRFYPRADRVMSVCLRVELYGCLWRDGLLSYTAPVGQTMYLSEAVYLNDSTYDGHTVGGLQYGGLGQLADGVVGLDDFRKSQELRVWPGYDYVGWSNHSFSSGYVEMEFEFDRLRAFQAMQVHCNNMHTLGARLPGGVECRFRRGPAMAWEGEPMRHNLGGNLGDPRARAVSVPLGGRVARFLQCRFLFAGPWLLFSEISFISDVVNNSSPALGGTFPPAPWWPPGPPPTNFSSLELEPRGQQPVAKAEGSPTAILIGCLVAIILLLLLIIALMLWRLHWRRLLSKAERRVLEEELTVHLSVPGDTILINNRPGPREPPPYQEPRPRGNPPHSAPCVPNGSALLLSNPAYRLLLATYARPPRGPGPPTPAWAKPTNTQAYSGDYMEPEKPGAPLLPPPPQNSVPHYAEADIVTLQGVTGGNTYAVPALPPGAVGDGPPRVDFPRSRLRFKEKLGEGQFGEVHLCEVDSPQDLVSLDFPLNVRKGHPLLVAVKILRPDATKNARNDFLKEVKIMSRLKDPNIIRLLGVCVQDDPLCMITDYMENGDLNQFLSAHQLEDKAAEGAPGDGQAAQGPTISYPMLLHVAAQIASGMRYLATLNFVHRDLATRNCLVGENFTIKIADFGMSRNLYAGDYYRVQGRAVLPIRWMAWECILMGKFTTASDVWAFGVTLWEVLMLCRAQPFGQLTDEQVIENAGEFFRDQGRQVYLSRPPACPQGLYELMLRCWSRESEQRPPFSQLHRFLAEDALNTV

For orientation: Kd means the equilibrium constant for the complex coming apart. On to `O=C(Nc1cccc(Cl)c1)Nc1ncc(CCNc2ncnc3ccsc23)s1` [SNS-314], for which the Kd in assay [1] was 0.14 µM (active); in assay [2], > 30 µM (inactive); on Ephrin type-B receptor 3 it was > 30 µM (inactive); in assay [3], > 30 µM (inactive); in assay [4], > 30 µM (inactive); in assay [5], > 30 µM (inactive).

As to `Cc1ccc(-n2nc(C(C)(C)C)cc2NC(=O)NCc2cc(F)ccc2Oc2ccc3c(cnn3CCO)c2)cc1` [PEXMETINIB], the equilibrium dissociation constant (Kd) in assay [1] was 0.363 µM (active); in assay [2], > 30 µM (inactive); at Ephrin type-B receptor 3, 28.2 µM; in assay [3], > 30 µM (inactive); in assay [4] it was > 30 µM (inactive); in assay [5] it was > 30 µM (inactive).

For `CNS(=O)(=O)Nc1nccc(Cc2c(C)c3ccc(Oc4ncccn4)cc3oc2=O)c1F` [AVUTOMETINIB], the Kd (in assay [1]; in assay [2]; on Ephrin type-B receptor 3; in assay [3]; in assay [4]; in assay [5]) was > 30 µM (inactive) throughout.

For the compound `COc1ccc(-c2ccc3c(N4CCOC[C@@H]4C)nc(N4CCOC[C@@H]4C)nc3n2)cc1CO` [AZD-8055], the Kd (in assay [1]; in assay [2]; at Ephrin type-B receptor 3; in assay [3]; in assay [4]; in assay [5]) was > 30 µM (inactive) throughout.

In the case of `C1=C/COCc2cc(ccc2OCCN2CCCC2)Nc2nccc(n2)-c2cccc(c2)COC/1` [PACRITINIB], the dissociation constant Kd in assay [1] was 71.5 µM (active); in assay [2] it was > 30 µM (inactive); on Ephrin type-B receptor 3, > 30 µM (inactive); in assay [3], > 30 µM (inactive); in assay [4], > 30 µM (inactive); in assay [5], > 30 µM (inactive).

Regarding `O=C(O)[C@]1(Cc2cccc(Nc3nccs3)n2)CC[C@@H](Oc2cccc(Cl)c2F)CC1` [MK-5108], the dissociation constant Kd in assay [1] was 1.22 µM (active); in assay [2], > 30 µM (inactive); at Ephrin type-B receptor 3 it was > 30 µM (inactive); in assay [3], > 30 µM (inactive); in assay [4], 2.37 µM (active); in assay [5], > 30 µM (inactive).

With `COc1cc(N2CCC(N3CCN(C)CC3)CC2)ccc1Nc1ncnc(Nc2ccccc2S(=O)(=O)C(C)C)n1` [ASP-3026], the Kd in assay [1] is 4.04 µM (active); in assay [2], > 30 µM (inactive); at Ephrin type-B receptor 3, 5.5 µM (active); in assay [3], > 30 µM (inactive); in assay [4], > 30 µM (inactive); in assay [5] it was > 30 µM (inactive).

`CN1CCC(CNc2ccc3ncc(-c4cccc(OC(F)(F)F)c4)n3n2)CC1` [SGI-1776]: the Kd (in assay [1]; in assay [2]; at Ephrin type-B receptor 3; in assay [3]; in assay [4]; in assay [5]) was > 30 µM (inactive) in each case.

On to `CC(=O)Nc1cccc(-n2c(=O)n(C3CC3)c(=O)c3c(Nc4ccc(I)cc4F)n(C)c(=O)c(C)c32)c1` [TRAMETINIB], for which the Kd (in assay [1]; in assay [2]; on Ephrin type-B receptor 3; in assay [3]; in assay [4]; in assay [5]) was > 30 µM (inactive) in each case.

Turning to `Cn1ncc(Cl)c1-c1cc(C(=O)N[C@H](CN)Cc2cccc(F)c2)sc1Cl` [AFURESERTIB], the Kd (in assay [1]; in assay [2]; at Ephrin type-B receptor 3; in assay [3]; in assay [4]; in assay [5]) was > 30 µM (inactive) throughout.

As to `OCCn1cc(-c2cnc3nnn(Cc4ccc5ncccc5c4)c3n2)cn1` [PF-04217903], the Kd (in assay [1]; in assay [2]; on Ephrin type-B receptor 3; in assay [3]; in assay [4]; in assay [5]) was > 30 µM (inactive) in each case.

Turning to `CCCS(=O)(=O)Nc1ccc(F)c(C(=O)c2c[nH]c3ncc(-c4ccc(Cl)cc4)cc23)c1F` [VEMURAFENIB], the Kd (in assay [1]; in assay [2]; at Ephrin type-B receptor 3; in assay [3]; in assay [4]; in assay [5]) was > 30 µM (inactive) each time.

As to `COC(=O)[C@@]1(O)C[C@H]2O[C@]1(C)n1c3ccccc3c3c4c(c5c6ccccc6n2c5c31)C(=O)NC4` [K-252A], the Kd is > 30 µM (inactive) in assay [1]; > 30 µM (inactive) in assay [2]; > 30 µM (inactive) at Ephrin type-B receptor 3; 0.167 µM (active) in assay [3]; 0.029 µM (active) in assay [4]; > 30 µM (inactive) in assay [5].

With `Cn1cc(-c2ccc3nnc(C(F)(F)c4ccc5ncccc5c4)n3n2)cn1` [JNJ-38877605], the Kd (in assay [1]; in assay [2]; at Ephrin type-B receptor 3; in assay [3]; in assay [4]; in assay [5]) was > 30 µM (inactive) throughout.

`Cc1cc([C@@H](C)Nc2ccccc2C(=O)O)c2nc(N3CCOCC3)cc(=O)n2c1` [AZD-6482]: the Kd (in assay [1]; in assay [2]; at Ephrin type-B receptor 3; in assay [3]; in assay [4]; in assay [5]) was > 30 µM (inactive) throughout.

As to `CNC(=O)c1ccc(-c2cnc3ncc(Cc4ccc5ncccc5c4)n3n2)cc1F` [CAPMATINIB], the Kd (in assay [1]; in assay [2]; on Ephrin type-B receptor 3; in assay [3]; in assay [4]; in assay [5]) was > 30 µM (inactive) each time.

`CN1CC[C@@H](c2c(O)cc(O)c3c(=O)cc(-c4ccccc4Cl)oc23)[C@@H]1CO`: the Kd in assay [1] is > 30 µM (inactive); in assay [2] it was 3.16 µM (active); on Ephrin type-B receptor 3, > 30 µM (inactive); in assay [3], > 30 µM (inactive); in assay [4] it was > 30 µM (inactive); in assay [5], > 30 µM (inactive).

The record behind these values is ChEMBL document CHEMBL3991601, “The target landscape of clinical kinase drugs” (Science, 2017).
